Square brackets hold non-standard residues; d marks the D form. Peptide text beside a SMILES is read from it. * marks the point of attachment. Dolaproine = CO[C@@H]([C@@H]1CCCN1)[C@@H](C)C(=O)O; Dil = CC[C@H](C)[C@H](NC)[C@@H](CC(=O)O)OC; X1 = C[C@@H](N*)[C@@H](O)c1ccccc1; NMeV = CN[C@H](C(=O)O)C(C)C
Experiments:
[1] = EV-203 pharmacokinetics of ADC, TAb and free MMAE in serum or plasma; assay type: in vivo, human; conditions: for Time of peak free MMAE concentration postinfusion: after end of enfortumab vedotin infusion
Procedure: In the PK cohort (i.e., PK analysis set), intensive PK sampling was performed wherein blood samples for analysis of ADC, total antibody (TAb), and free (unconjugated) MMAE were collected at prespecified time points. […] Blood samples for antitherapeutic antibodies (ATAs) were collected predose on Day 1 of cycles 1 to 4, 6, 8, 10, and within 30–37 days after the last study dose. Validated assays were used to measure concentrations of ADC, TAb, and free MMAE in serum or plasma and to assess ATA levels.
All patients who received any amount of study drug were included in the primary analyses of efficacy endpoints and safety analyses. The PK analyses included data from patients in the PK cohort who received at least 3 of 4 doses of the study drug through cycle 2 Day 1 and had at least five blood samples collected and assayed for measurements of ADC, TAb, or free MMAE concentrations to determine at least one PK parameter.

[2] = test system: patients with HER2-positive (IHC2+ or 3+) unresectable locally advanced or mUC; set-up: method as in earlier work; conditions: pooled two phase 2 studies, combined N = 107; 95% CI 40.6%–60.3%; cited from earlier work
[3] = cycle 1 Day 1, Non-PK cohort, mean (SD)
[4] = cycle 1 Day 1, PK cohort, mean (SD)
[5] = cycle 1 Day 8, Non-PK cohort, mean (SD)
[6] = cycle 1 Day 8, PK cohort, mean (SD)
[7] = cycle 1 Day 15, Non-PK cohort, mean (SD)
[8] = cycle 1 Day 15, PK cohort, mean (SD)
[9] = plasma, Cycle 1 Day 15, third to first dose, mean (SD)

CC[C@H](C)[C@@H]([C@@H](CC(=O)N1CCC[C@H]1[C@H](OC)[C@@H](C)C(=O)N[C@H](C)[C@@H](O)c1ccccc1)OC)N(C)C(=O)[C@@H](NC(=O)[C@@H](NC)C(C)C)C(C)C [Free MMAE, monomethyl auristatin E] (H-[NMeV]V[Dil][Dolaproine]-X1)
Plasma concentration at end of infusion [1, 3]: 376 (241) [23] pg/mL
Plasma concentration at end of infusion [1, 4]: 357 (154) [13] pg/mL
Plasma concentration at end of infusion [1, 5]: 2720 (1490) [17] pg/mL
Plasma concentration at end of infusion [1, 6]: 1680 (1290) [12] pg/mL
Plasma concentration at end of infusion [1, 7]: 3350 (2600) [11] pg/mL
Plasma concentration at end of infusion [1, 8]: 2110 (1680) [10] pg/mL
Median t max (range) ([1]; plasma, Cycle 1 Day 1): 2.00 (1.87–2.93) days
AUC0–7d ([1]; plasma, Cycle 1 Day 1, after enfortumab vedotin 1.25 mg/kg IV, mean (SD)): 16.9 (9.2) day ng/mL
C max ([1]; plasma, Cycle 1 Day 1, mean (SD)): 3.3 (1.74) ng/mL
Median t max (range) ([1]; plasma, Cycle 1 Day 15): 1.93 (0.86–2.92) days
AUC0–7d ([1]; plasma, Cycle 1 Day 15, after enfortumab vedotin 1.25 mg/kg IV, mean (SD)): 23.3 (16.4) day ng/mL
C max ([1]; plasma, Cycle 1 Day 15, mean (SD)): 4.5 (3.58) ng/mL
R ac (AUC0–7d), accumulation ratio [1, 9]: 1.32 (0.486)
R ac (Cmax), accumulation ratio [1, 9]: 1.28 (0.499)
Time of peak free MMAE concentration postinfusion ([1]; plasma, listed as MMAE): approximately 2 days
Time of peak free MMAE concentration postinfusion ([1]; plasma, listed as free MMAE): 2 to 3 days
Mean accumulation ratios (third to first dose) for maximum concentration and AUC0–7d ([1]; range over ADC, TAb and free MMAE, repeat dosing): 1.03 to 1.32

TAb: total antibody analyte measured in serum after enfortumab vedotin dosing
Serum concentration at end of infusion [1, 3]: 29,100 (5050) [23] ng/mL
Serum concentration at end of infusion [1, 4]: 30,800 (5730) [13] ng/mL
Serum concentration at end of infusion [1, 5]: 29,900 (5450) [17] ng/mL
Serum concentration at end of infusion [1, 6]: 34,300 (6640) [12] ng/mL
Serum concentration at end of infusion [1, 7]: 27,600 (6210) [11] ng/mL
Serum concentration at end of infusion [1, 8]: 33,600 (5450) [10] ng/mL
AUC0–7d ([1]; serum, Cycle 1 Day 1, PK cohort, 1.25 mg/kg IV, mean (SD)): 77.4 (17.3) day μg/mL
C max ([1]; serum, Cycle 1 Day 1, PK cohort, mean (SD)): 31.7 (5.73) μg/mL
AUC0–7d ([1]; serum, Cycle 1 Day 15, PK cohort, 1.25 mg/kg IV, mean (SD)): 94.7 (15.7) day μg/mL
C max ([1]; serum, Cycle 1 Day 15, PK cohort, mean (SD)): 34.4 (4.64) μg/mL
Time of peak serum concentration ([1]; serum, PK cohort cycle 1): at the end of the enfortumab vedotin infusion

B1: disitamab vedotin (conjugate, chains of the INN, looked up)
VH: EVQLVQSGAEVKKPGATVKISCKVSGYTFTDYYIHWVQQAPGKGLEWMGRVNPDHGDSYYNQKFKDKATITADKSTDTAYMELSSLRSEDTAVYFCARNYLFDHWGQGTLVTVSS
VL: DIQMTQSPSSVSASVGDRVTITCKASQDVGTAVAWYQQKPGKAPKLLIYWASIRHTGVPSRFSGSGSGTDFTLTISSLQPEDFATYYCHQFATYTFGGGTKVEIK
modifications: vedotin (MMAE) payload
ORR [2]: 50.5%

From publication PMC11555717 (Cancer Medicine, 2024)
